In brackets after ≈: the same amount, converted by molar mass. Several values for one entry are separate records, joined by “and”; a condition that tells them apart may be missing. Equal entries are not always repeated.
Columns and labels:
AGS cells [1] = experiment: Annexin V and dead cell assay (flow cytometry); assay type: cell-based, human; settings: 24 h
Protocol: To estimate the viability and induction of apoptosis/necrosis in the population of AGS cells treated with compound 5, the Muse Annexin V and a Dead Cell Assay Kit (Merck Millipore, Burlington, MA, USA) were used. The cells were seeded in 12-well plates (1 × 10^5 cells/well) and incubated with the compound at concentrations of 1, 5, and 10 µg/mL. […] After 24 h, the cells were stained with the kit reagents, namely, annexin V and 7-AAD (7-aminoactinomycin), and analyzed by flow cytometry (Muse Cell Analyzer, Merck Millipore, Burlington, MA, USA). The experiments were performed in three independent repeats.

[2] = system: gastric adenocarcinoma AGS; experiment: MTT assay, AGS cells; assay type: cell-based, human
Protocol: (§1) The human gastric adenocarcinoma AGS, cervical cancer HeLa, and acute promyelocytic leukemia HL-60 cells were obtained from the American Type Culture Collection (ATCC, Manassas, VA, USA). Human neonatal fibroblasts were obtained from LGC Standards (Luckenwalde, Germany). The HeLa and AGS lines were cultured in Dulbecco’s modified Eagle’s medium (DMEM) and DMEM/F12 medium, respectively. The HL-60 line was maintained in RPMI-1640 medium. Fibroblasts were cultured in Fibroblast Growth Medium with Supplement Mix. All the media were supplemented with 100 units/mL of penicillin, 100 µg/mL of streptomycin, and 10% (v/v) fetal bovine serum (FBS) (Merck Millipore, Burlington, MA, USA). The cells were incubated at 37 °C and 5% CO2.
(§2) To estimate the cytotoxic effect of the five compounds (4–8), MTT (3-(4,5-dimethylthiazol-2-yl)-2,5-diphenyltetrazolium bromide) assay was used. Oxaliplatin was used as a positive control in this test. All the cell lines were seeded in 96-well plates at a density of 5 × 10^3 cells/well and treated for 24 h with the compounds at concentrations of 0.5–40 µg/mL. Oxaliplatin was tested in the range of 20–400 µg/mL (50–1000 µM). After treatment, the cells were incubated with MTT (0.5 mg/mL; Merck Millipore, Burlington, MA, USA) for 3 h. Then, DMSO was used to dissolve formazan crystals, and the absorbance of the formazan solution was measured with a plate reader (Epoch, BioTek Instruments, Santa Clara, CA, USA). All the results (±standard deviation (SD)) were obtained from six repetitions in at least two independent experiments. The data are expressed as IC50 values (µg/mL).

[3] = system: human neonatal fibroblasts; experiment: MTT assay, noncancerous fibroblasts; assay type: cell-based; settings: Homo sapiens, Fibroblast, 24 h treatment
Protocol: as §1, §2

AGS cells [4] = experiment: Cell cycle analysis (propidium iodide); assay type: cell-based, human; settings: 48 h
Protocol: The AGS cells were seeded in a 6-well plate (5 × 10^5 cells/well) and incubated with compound 5 at concentrations of 1, 5, and 10 µg/mL for 48 h; oxaliplatin at the concentration of 40 µg/mL; and DMSO (0.2%, v/v). After treatment, the cells were stained with propidium iodide from the Muse Cell Cycle Assay Kit (Merck Millipore, Burlington, MA, USA), and the amount of cells in each phase of the cell cycle was determined using the Muse Cell Analyzer (Merck Millipore, Burlington, MA, USA). The experiment was independently repeated three times.

AGS cells [5] = experiment: MitoPotential assay (mitochondrial membrane depolarization); assay type: cell-based, human; settings: 10 µg/mL, 5 h
Protocol: The AGS cells were seeded in a 12-well plate (1 × 10^5 cells/well) and incubated with compound 5 at concentrations of 1, 5, and 10 µg/mL; oxaliplatin at the concentration of 40 µg/mL; and DMSO (0.2%, v/v). After 5 h of exposure, the cells were stained with the Muse MitoPotential Assay Kit (Merck Millipore, Burlington, MA, USA) and analyzed with the Muse Cell Analyzer (Merck Millipore, Burlington, MA, USA). The percentage of depolarized live and dead cells was estimated in the experiments, which were independently repeated three times.

AGS cells [6] = experiment: Microscopic observation of AGS cells; assay type: cell-based, human; settings: microscopy, 200×; compound 5 at 1, 5, 10 µg/mL; oxaliplatin 20 and 40 µg/mL
Protocol: These changes were clearly visible when higher concentrations of the compound were used in the study.
Figure 2 The effect of chalcone derivative 5 on AGS cells. The cells were treated with DMSO (0.2%, v/v) (A) and the compound at concentrations of 1 (B), 5 (C), and 10 (D) µg/mL and oxaliplatin at 20 (E) and 40 (F) µg/mL. The images were taken at 200× magnification.

caspase-8 = experiment: Caspase-Glo 8 activity assay in AGS cells; assay type: cell-based, human; settings: 24 h, relative to DMSO control
Protocol: The AGS cells were seeded in a 96-well plate (5 × 10^3 cells/well) and treated with compound 5 at concentrations of 1, 5, 7, and 10 µg/mL for 24 h; oxaliplatin at the concentration of 20 µg/mL; and DMSO (1%, v/v). The cells were then treated with reagents from Caspase-Glo 8 Assay or Caspase-Glo 9 Assay (Promega, Madison, WI, USA) and measured with the luminometer Glomax Multi + Detection System (Promega, Madison, WI, USA). The experiments were performed in two independent repeats in three repetitions.

[7] = system: acute promyelocytic leukemia HL-60; experiment: MTT assay, HL-60 cells; assay type: cell-based, human
Protocol: as §1, §2

neutrophil elastase = biological target: T1, neutrophil elastase (Sus scrofa, UniProt P00772); experiment: Elastase assay (SANA substrate); assay type: biochemical, porcine; settings: Tris-HCl pH 8.0, SANA substrate; read-out: neutrophil elastase inhibition IC50 (converted)
T1 construct: purchased Sigma Chemical Co. (St. Louis, MO, USA)
Protocol: The elastase analysis was performed according to the spectrophotometric method with oleanolic acid as a reference. The reaction mixture (Tris-HCl buffer (pH 8.0), 1.0 μg/mL porcine pancreatic elastase, and different concentrations of chalcone derivatives was preincubated at room temperature for 15 min. Afterwards, the addition of the substrate—SANA—started the reaction. Product formation changes were analyzed at λ = 410 nm for 20 min every 20 s (Epoch, BioTek Instruments, Santa Clara, CA, USA). The control was composed of Tris-HCl buffer (pH 8.0), an appropriate concentration of the chalcone derivative, and SANA.

[8] = SI = IC50 noncancer cells/IC50 cancer cells, in relation to human neonatal fibroblasts

T1 sequence (P00772 27-266): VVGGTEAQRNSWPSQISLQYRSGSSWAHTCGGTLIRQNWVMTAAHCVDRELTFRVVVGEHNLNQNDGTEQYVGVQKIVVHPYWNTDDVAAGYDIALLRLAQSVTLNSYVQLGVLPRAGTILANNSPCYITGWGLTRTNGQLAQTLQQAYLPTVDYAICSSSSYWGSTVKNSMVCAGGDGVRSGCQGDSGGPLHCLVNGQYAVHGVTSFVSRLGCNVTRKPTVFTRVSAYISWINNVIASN

- IC50 ([2]; Homo sapiens, AGS, 24 h, MTT, 24 h treatment): < 1 µg/mL
- IC50 ([7]; Homo sapiens, HL-60, 24 h, MTT, 24 h treatment): < 1.57 µg/mL
- IC50 HL-60 ([7]; MTT, 24 h treatment): 0.93 ± 0.09 µg/mL (≈ 1.77 µM)
- IC50 (neutrophil elastase): 121 µM
Structure (SMILES): Cc1cc(S(=O)(=O)Nc2ccc(C(=O)/C=C/c3ccc(Br)cc3)cc2)c(Cl)cc1Cl [Compound 5, (E)-N-{4-[3-(4-Bromophenyl)acryloyl]phenyl}-2,4-Dichloro-5-Methylbenzenesulfonamide]
- dead cells (AGS cells [1]; 5 µg/mL): 18.28% ± 1.80%
- late apoptotic cells (AGS cells [1]; 5 µg/mL): 33.92% ± 3.05%
- dead cells (AGS cells [1]; 10 µg/mL): 22.16% ± 2.04%
- late apoptotic cells (AGS cells [1]; 10 µg/mL): 49.90% ± 2.07%
- live cells (viability) (AGS cells [1]; 10 µg/mL): 26.26% ± 4.03%
- selectivity index AGS [2, 8]: 28.75
- IC50 [3]: 25.6 ± 1.04 µg/mL (≈ 48.7 µM)
- cells in G0/G1 phase (AGS cells [4]; 1 µg/mL): 41.4%
- cells in G2/M phase (AGS cells [4]; 1 µg/mL): 43.0%
- cells in S phase (AGS cells [4]; 1 µg/mL): 14.6%
- cells in G1 (G0/G1) phase (AGS cells [4]; 10 µg/mL): 34.9% and 34.47% ± 2.87%
- cells in G2/M phase (AGS cells [4]; 10 µg/mL): 23.1% and 21.50% ± 1.50%
- cells in S phase (AGS cells [4]; 10 µg/mL): 15.5% and 13.78% ± 1.70%
- cells in subG0 phase (AGS cells [4]; 10 µg/mL): 27.1% ± 0.87%
- depolarized/dead cells (AGS cells [5]): 32.71% ± 3.50%
- depolarized/live cells (AGS cells [5]): 34.20% ± 2.57%
- morphological changes of AGS cells (AGS cells [6]): cell shrinkage, membrane blebbing, and cell detachment
- caspase-8 relative activity (caspase-8; 1 µg/mL): 1.16 ± 0.15
- caspase-8 relative activity (caspase-8; 5 µg/mL): 3.53 ± 0.33
- caspase-8 relative activity (caspase-8; 7 µg/mL): 3.39 ± 0.28
- caspase-8 relative activity (caspase-8; 10 µg/mL): 2.99 ± 0.20
- selectivity index HL-60 [7, 8]: 27.52
